Read-outs that look alike come from different tables or passages of the source.

Experiment [1] deals with IL-10-induced JAK1/TYK2 signal pathway. In words: IL-10-induced JAK1/TYK2 signal pathway STAT3-Luc reporter gene assay in U2OS cells. In kind it is cell-based, human. The following applies: Homo sapiens, read-out: Half inhibition dose (IC50) on IL-10-induced JAK1/TYK2 signal pathway. The gist of the method: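 Luciferase read-out (560 nm) corrected by GFP signal (Ex485/Em520) gives IL-10 pathway activity, and IC50 is derived from inhibition rates. Cells were U2OS transfected with IL-10R1 plus STAT3-Luc reporter, pretreated 6 h with 0.1–300 nM compound, then stimulated 24 h with IL-10 at 10 ng/mL.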

The subject of experiment [2] is EPO-induced JAK2 signal pathway. In words: EPO-induced proliferation of UT-7 cells (JAK2 signal). The following applies: Homo sapiens, UT7; UT-7 cell proliferation, EPO 10 ng/mL, 72 hours; read-out: Inhibition activity IC50 on EPO-induced JAK2 signal pathway. In kind it is cell-based, human. The gist of the method:
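[…] was derived from inhibition rates across doses, scaled between wells lacking compound and cytokine (0) and EPO without compound (100), using alamarBlue fluorescence at Ex530/Em590. Compound (final 0-10000 nM) and 10 ng/mL EPO were given to UT-7 cells at 15000 per well for 72 h at 37° C.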

[3] abbreviates: U2OS cells, STAT3-Luc reporter, IL-10 10 ng/mL.
The mark [4] stands for this setting: U2OS, U2OS cells, STAT3-Luc reporter, IL-10 10 ng/mL.

`CCONC(=O)c1cnc(Nc2cc(C)nc(C)n2)cc1Nc1ccc(C(F)(F)F)cc1N(C)S(C)(=O)=O` [Example 202, 6-((2,6-dimethylpyrimidin-4-yl)amino)-N-ethoxy-4-((2-(N-methylmethanesulfonamido)-4-(trifluoromethyl)phenyl)amino)nicotinamide]: the IC50 in experiment [1] (setting [3]) was 0.412 nM; in experiment [2], above 10000 nM.

Consider `CCONC(=O)c1cnc(Nc2cc(C)nc(C)n2)cc1Nc1cccc(-c2ncccn2)c1OC` [Example 212], for which the IC50 in experiment [1] (U2OS) is 0.271 nM; in experiment [2], above 10000 nM.

`CCONC(=O)c1cnc(Nc2cc(C)nc(C)n2)cc1Nc1cc(F)cc(-c2ncccn2)c1OC` [Example 215, 6-((2,6-dimethylpyrimidin-4-yl)amino)-N-ethoxy-4-((5-fluoro-2-methoxy-3-(pyrimidin-2-yl)phenyl)amino)nicotinamide]: the IC50 was 0.102 nM in experiment [1] (setting [4]) and above 10000 nM in experiment [2].

Regarding `CCONC(=O)c1cnc(NC(=O)C2CC2)cc1Nc1cccc(-c2ncc(Cl)cn2)c1OC` [Example 219, 4-((3-(5-chloropyrimidin-2-yl)-2-methoxyphenyl)amino)-6-(cyclopropylcarboxamido)-N-ethoxy nicotinamide], the IC50 in experiment [1] (setting [4]) is 1.09 nM; in experiment [2] it was above 10000 nM.

Consider `CCONC(=O)c1cnc(Nc2cc(C)nc(C)n2)cc1Nc1cccc(-c2ncc(C)cn2)c1OC` [Example 238, 6-((2,6-dimethylpyrimidin-4-yl)amino)-N-ethoxy-4-((2-methoxy-3-(5-methylpyrimidin-2-yl)phenyl)amino)nicotinamide], for which the figures for the IC50 in experiment [1] (setting [3]) and in experiment [2] were 0.168 nM and above 10000 nM, respectively.

These data come from US20240101548A1, “HYDROXAMATE COMPOUND, PREPARATION METHOD THEREFOR AND APPLICATION THEREOF” (SHENZHEN CHIPSCREEN BIOSCIENCES CO., LTD., priority 2020, published 2024).
